Measurements reported in ChEMBL document CHEMBL4190345, “Synthesis and biological evaluation of new substituted thioglycolurils, their analogues and derivatives” (Eur J Med Chem, 2017).

Key:
[1] = test system: HEK293; assay: Cytotoxicity in human HEK293 cells assessed as inhibition of cell growth incubated for 72 hrs by MTT assay; format: cell-based
[2] = test system: A549; assay: Cytotoxicity in human A549 cells assessed as inhibition of cell growth incubated for 72 hrs by MTT assay; format: functional, cell-based; conditions: A549, 72 h
[3] = Cytotoxicity in human […] cells assessed as inhibition of cell growth incubated for 72 hrs by MTT assay; format: functional, cell-based
[4] = test system: MCF7; assay: Cytotoxicity in human MCF7 cells assessed as inhibition of cell growth incubated for 72 hrs by MTT assay; format: functional, cell-based; conditions: MCF7, 72 h
[5] = test system: RD; assay: Cytotoxicity in human RD cells assessed as inhibition of cell growth incubated for 72 hrs by MTT assay; format: functional, cell-based
[6] = test system: Venturia inaequalis; assay: Fungicidal activity against Venturia inaequalis grown under potato-saccharose agar assessed as inhibition of mycelial radial growth at 30 mg/l incubated for 72 hrs; format: functional; conditions: read-out: GI
[7] = test system: Rhizoctonia solani; assay: Fungicidal activity against Rhizoctonia solani grown under potato-saccharose agar assessed as inhibition of mycelial radial growth at 30 mg/l incubated for 72 hrs; format: functional; conditions: read-out: GI
[8] = test system: Bipolaris sorokiniana; assay: Fungicidal activity against Bipolaris sorokiniana grown under potato-saccharose agar assessed as inhibition of mycelial radial growth at 30 mg/l incubated for 72 hrs; format: functional; conditions: read-out: GI
[9] = test system: Fusarium verticillioides; assay: Fungicidal activity against Fusarium moniliforme grown under potato-saccharose agar assessed as inhibition of mycelial radial growth at 30 mg/l incubated for 72 hrs; format: functional; conditions: read-out: GI
[10] = test system: Fusarium oxysporum; assay: Fungicidal activity against Fusarium oxysporum grown under potato-saccharose agar assessed as inhibition of mycelial radial growth at 30 mg/l incubated for 72 hrs; format: functional; conditions: read-out: GI
[11] = test system: Sclerotinia sclerotiorum; assay: Fungicidal activity against Sclerotinia sclerotiorum grown under potato-saccharose agar assessed as inhibition of mycelial radial growth at 30 mg/l incubated for 72 hrs; format: functional; conditions: read-out: GI
[12] = Homo sapiens, HEK293, 72 h, read-out: IC50

SMILES | IC50 ([1]; hek293) | IC50 [2] | IC50 [3] | IC50 [4] | IC50 [5] | IC50 [1, 12] | inhibition of growth at 30 µg/mL [6] | inhibition of growth at 30 µg/mL [7] | inhibition of growth at 30 µg/mL [8] | inhibition of growth at 30 µg/mL [9] | inhibition of growth at 30 µg/mL [10] | inhibition of growth at 30 µg/mL [11]
CCN1C(=O)N(CC)C2C1NC(=O)N2/N=C/C=C/c1ccccc1 (stereo not given) | Not Active | 44.3 µM | 18.3 µM | 83.2 µM | 2.02 µM | – | – | – | – | – | – | –
CCN1C(=O)N(c2ccccc2)C2NC(=S)N(/N=C/C=C/c3ccccc3OC)C21 (stereo not given) | – | > 100 µM | 2.12 µM | 79.1 µM | 45.9 µM | 57.5 µM | 0% | 17% | 0% | 19% | 1% | 12%
COc1cccc2c1C(=O)c1c(O)c3c(c(O)c1C2=O)C[C@@](O)(C(C)=O)C[C@@H]3O[C@H]1C[C@H](N)[C@H](O)[C@H](C)O1 [DAUNORUBICIN] | – | 0.51 µM | 0.21 µM | 1.44 µM | 2.45 µM | 11.2 µM | – | – | – | – | – | –
CSC1=NC2C(N(C)C(=O)N2c2ccccc2)N1/N=C/C=C/c1ccccc1 (stereo not given) | – | – | – | – | – | – | 24% | 32% | 56% | 16% | 25% | 0%
CCN1C(=O)N(CC)C2C1NC(=S)N2/N=C/C=C/c1ccccc1 (stereo not given) | – | 6.53 µM | 4.38 µM | 36.1 µM | 2.25 µM | 42.1 µM | 12% | 42% | 19% | 41% | 36% | 3%
CSC1=NC2C(N(C)C(=O)N2C)N1/N=C/C=C/c1ccco1 (stereo not given) | – | – | – | – | – | – | 19% | 27% | 34% | 51% | 34% | 11%
CN1C(=O)N(C)C2C1N=C(SCc1ccc(Cl)cc1)N2/N=C/C=C/c1ccccc1 (stereo not given) | – | – | – | – | – | – | 18% | 28% | 49% | 57% | 46% | 17%
COc1ccccc1/C=C/C=N/N1C(SC)=NC2C1N(C)C(=O)N2C (stereo not given) | – | – | – | – | – | – | 13% | 56% | 33% | 14% | 20% | 13%
CN1C(=O)N(C)C2C1NC(=O)N2/N=C/C=C/c1ccccc1 (stereo not given) | – | – | – | – | – | – | 18% | 92% | 5% | 9% | 6% | 12%
CCN1C(=O)N(CC)C2C1N=C(SC)N2/N=C/C=C/c1ccccc1OC (stereo not given) | – | 4.79 µM | 1.09 µM | 34.6 µM | 7.97 µM | 145 µM | 20% | 65% | 47% | 42% | 51% | 23%
CCN1C(=O)N(CC)C2C1NC(=S)N2/N=C/C=C/c1ccccc1[N+](=O)[O-] (stereo not given) | – | > 100 µM | 7.71 µM | 43.9 µM | 15.2 µM | 19.3 µM | – | – | – | – | – | –
CC(/C=N/N1C(=S)NC2C1N(C)C(=O)N2C)=C\c1ccccc1 (stereo not given) | – | 49.4 µM | 75.9 µM | > 100 µM | 84 µM | – | 28% | 82% | 9% | 20% | 29% | 11%
CCN1C(=O)N(CC)C2C1NC(=O)N2/N=C/C=C/c1ccccc1[N+](=O)[O-] (stereo not given) | – | > 100 µM | 9.63 µM | 88 µM | 1.93 µM | 42.9 µM | – | – | – | – | – | –
CN1C(=O)N(c2ccccc2)C2NC(=S)N(/N=C/C=C/c3ccccc3)C21 (stereo not given) | – | > 100 µM | 12.1 µM | > 100 µM | 1.69 µM | 167 µM | – | – | – | – | – | –
CCN1C(=O)N(CC)C2C1N=C(SC)N2/N=C/C=C/c1ccc(OC)cc1 (stereo not given) | – | – | – | – | – | – | 13% | 76% | 64% | 32% | 32% | 12%
CN1C(=O)N(C)C2C1N=C(SCc1ccc(Cl)cc1)N2/N=C/C=C/c1ccco1 (stereo not given) | – | – | – | – | – | – | 10% | 42% | 40% | 42% | 33% | 19%
